Common to all, as to type: functional
For one assay, the system named is Colletotrichum gossypii. The assay can be described thus: Fungicidal activity against Colletotrichum gossypii assessed as inhibition of fungal growth at 50 ug/ml after 48 hr.
The subject of the next assay is Dothiorella gregaria. The assay can be described thus: Fungicidal activity against Dothiorella gregaria assessed as inhibition of fungal growth at 50 ug/ml after 48 hr.
Another assay concerns Botrytis cinerea. The assay can be described thus: Fungicidal activity against Botryotinia fuckeliana Pers assessed as inhibition of fungal growth at 50 ug/ml after 48 hr.
In the next assay the test system is Rhizoctonia solani. The assay can be described thus: Fungicidal activity against Rhizoctonia solani assessed as inhibition of fungal growth at 50 ug/ml after 48 hr.

The term inhibition denotes the share of the control response that was lost under treatment.

As to `Fc1ccc(CSc2nc3ccc(F)c(F)c3s2)cc1F`, the inhibition at 50 µg/mL in the assay on Colletotrichum gossypii is 80%; with Dothiorella gregaria it was 85%; with Botrytis cinerea it was 72%; with Rhizoctonia solani it was 85%.

For the molecule `Fc1ccc2sc(SCc3c(F)cccc3F)nc2c1`, the inhibition at 50 µg/mL with Colletotrichum gossypii was 56%; in the assay with Dothiorella gregaria, 74%; with Botrytis cinerea, 78%; in the assay on Rhizoctonia solani, 80%.

`Fc1ccccc1CSc1nc2ccc(F)c(F)c2s1`: the inhibition at 50 µg/mL was found to be 74% in the assay on Colletotrichum gossypii, 81% in the assay on Dothiorella gregaria, 86% in the assay on Botrytis cinerea and 84% in the assay on Rhizoctonia solani.

In the case of `CC(C)(C)C(=O)C(Oc1ccc(Cl)cc1)n1cncn1` (configuration not stated) [TRIADIMEFON], the inhibition at 50 µg/mL came to 95% in the assay on Colletotrichum gossypii, 61% in the assay with Dothiorella gregaria, 84% in the assay with Botrytis cinerea and 90% with Rhizoctonia solani.

For `Fc1ccc(CSc2nc3c(F)cccc3s2)cc1F`, the inhibition at 50 µg/mL with Colletotrichum gossypii came out at 78%; with Dothiorella gregaria, 89%; in the assay with Botrytis cinerea, 97%; with Rhizoctonia solani it was 92%.

For the molecule `Fc1cccc(F)c1CSc1nc2ccc(F)c(F)c2s1`, the inhibition at 50 µg/mL in the assay on Colletotrichum gossypii was 63%; with Dothiorella gregaria, 81%; with Botrytis cinerea, 69%; with Rhizoctonia solani it was 82%.

As to `Fc1ccc2sc(SCc3ccccc3F)nc2c1`, the inhibition at 50 µg/mL in the assay with Colletotrichum gossypii was 67%; in the assay on Dothiorella gregaria it was 81%; with Botrytis cinerea it was 83%; with Rhizoctonia solani, 82%.

As for `Fc1ccccc1CSc1nc2c(F)cccc2s1`, the inhibition at 50 µg/mL in the assay on Colletotrichum gossypii is 67%; in the assay with Dothiorella gregaria, 78%; with Botrytis cinerea, 81%; in the assay on Rhizoctonia solani, 82%.

In the case of `Fc1ccc2sc(SCc3ccc(F)c(F)c3)nc2c1`, the inhibition at 50 µg/mL with Colletotrichum gossypii worked out at 74%; with Dothiorella gregaria, 78%; with Botrytis cinerea, 69%; with Rhizoctonia solani, 86%.

With `Fc1ccc(CSc2nc3c(Cl)cc(C(F)(F)F)cc3s2)cc1F`, the inhibition at 50 µg/mL is 37% in the assay on Colletotrichum gossypii, 35% in the assay with Dothiorella gregaria, 67% in the assay on Botrytis cinerea and 40% with Rhizoctonia solani.

In the case of `Fc1cccc(F)c1CSc1nc2c(Cl)cc(C(F)(F)F)cc2s1`, the inhibition at 50 µg/mL came to 44% in the assay with Colletotrichum gossypii, 62% in the assay on Dothiorella gregaria, 67% with Botrytis cinerea and 69% in the assay with Rhizoctonia solani.

As for `Fc1cccc(F)c1CSc1nc2c(F)cccc2s1`, the inhibition at 50 µg/mL stood at 52% with Colletotrichum gossypii, 63% in the assay on Dothiorella gregaria, 78% in the assay on Botrytis cinerea and 74% with Rhizoctonia solani.

For `Fc1ccccc1CSc1nc2c(Cl)cc(C(F)(F)F)cc2s1`, the inhibition at 50 µg/mL came to 70% in the assay on Colletotrichum gossypii, 70% in the assay on Dothiorella gregaria, 83% in the assay on Botrytis cinerea and 83% with Rhizoctonia solani.

The values above are taken from ChEMBL document CHEMBL3045915, “Microwave-assisted, one-pot syntheses and fungicidal activity of polyfluorinated 2-benzylthiobenzothiazoles” (2006).
